Assay results taken from patent publication US20220323383A1, “SMALL-MOLECULAR ADJUVANTS AND IMPLEMENTATIONS THEREOF” (JAWAHARLAL NEHRU CENTRE FOR ADVANCED SCIENTIFIC RESEARCH, priority 2019, published 2022).
Counter-ions that a name gives are not always drawn.

Columns and labels:
Type in all cases: cell-based
P. aeruginosa R590 [1] = experiment: Chequerboard combination efficacy of adjuvant with antibiotics; details: P. aeruginosa R590
In short: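 Two-fold chequerboard broth microdilution of adjuvant plus antibiotic; 6 h cultures in peptone diluted to ~10^5 cfu/mL, incubated 24 h at 37 °C, 150 rpm, OD600 read. Wells matching media control define inhibitory concentrations; FIC index (FICantibiotic+FICadjuvant) and potentiation factor (MIC alone/MIC with adjuvant) calculated.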

A. baumannii R674 [2] = experiment: Bactericidal time-kill kinetics; details: combination of rifampicin and Compound 13 (4 μg/mL+2 μg/mL and 8 μg/mL+2 μg/mL)
Method: (§1) Briefly, A. baumannii R674 and P. aeruginosa R590 were grown in nutrient broth at 37° C. for 6 h. Combinations of Compound 13 and rifampicin (4 μg/mL+2 μg/mL and 8 μg/mL+2 μg/mL) and rifampicin alone (32 μg/mL) were inoculated with aliquots of A. baumannii R674 suspended in fresh media at ˜1.8×10^5 CFU/mL. Similarly, combination of […] and fusidic acid (8 μg/mL+1 μg/mL), Compound 15 (128 μg/mL) and fusidic acid (16 μg/mL) were inoculated with aliquots of P. aeruginosa R590 suspended in fresh media at ˜1.8×10^5 CFU/mL. After specified time intervals (0, 1, 2, 4, 6 and 12 h), 20 μL aliquots were serially diluted 10-fold in 0.9% saline, plated on sterile MacConkey agar plates and incubated at 37° C. overnight. The viable colonies were counted the next day and represented as logio (CFU/mL) (FIG. 1). Combination of rifampicin and Compound 13 could completely kill the bacteria in 2 h and combination of fusidic acid and Compound 14 could kill bacteria in 12 h.

E. coli R3336 = experiment: Individual antibacterial activity (MIC) of adjuvants; details: Escherichia coli, R3336, read-out: MIC against clinical isolates of bacteria
In short: (§2)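 Broth microdilution used 6-h peptone cultures diluted to about 10^5 cfu/mL, with two-fold serial dilutions of adjuvant alone. Plates were incubated at 37 °C with shaking at 150 rpm. MIC was taken as the lowest concentration giving OD600 equal to the media control at 24 h.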

A. baumannii R674 [3] = experiment: as above; details: Acinetobacter baumannii, R674, read-out: MIC against clinical isolates of bacteria
In short: as §2

K. pneumoniae R3934 = experiment: as above; details: Klebsiella pneumoniae, R3934, read-out: MIC against clinical isolates of bacteria
In short: as §2

P. aeruginosa R590 [4] = experiment: as above; details: Pseudomonas aeruginosa, R590, read-out: MIC against clinical isolates of bacteria
In short: as §2

P. aeruginosa R590 [5] = experiment: Bactericidal time-kill kinetics; details: combination with fusidic acid (8 μg/mL+1 μg/mL)
Method: as §1

| Compound | FICI (P. aeruginosa R590 [1]; antibiotic Chloramphenicol) | MIC of antibiotic in presence of adjuvant (P. aeruginosa R590 [1]; antibiotic Chloramphenicol) | Potentiation factor (P. aeruginosa R590 [1]; antibiotic Chloramphenicol) | MIC of antibiotic in presence of adjuvant (P. aeruginosa R590 [1]; antibiotic Colistin) | MIC of antibiotic in presence of adjuvant (P. aeruginosa R590 [1]; antibiotic Daptomycin) | FICI (P. aeruginosa R590 [1]; antibiotic Fusidic acid) | MIC of antibiotic in presence of adjuvant (P. aeruginosa R590 [1]; antibiotic Fusidic acid) | Potentiation factor (P. aeruginosa R590 [1]; antibiotic Fusidic acid) | FICI (P. aeruginosa R590 [1]; antibiotic Linezolid) | MIC of antibiotic in presence of adjuvant (P. aeruginosa R590 [1]; antibiotic Linezolid) | Potentiation factor (P. aeruginosa R590 [1]; antibiotic Linezolid) | FICI (P. aeruginosa R590 [1]; antibiotic Minocycline) | MIC of antibiotic in presence of adjuvant (P. aeruginosa R590 [1]; antibiotic Minocycline) | Potentiation factor (P. aeruginosa R590 [1]; antibiotic Minocycline) | FICI (P. aeruginosa R590 [1]; antibiotic Rifampicin) | MIC of antibiotic in presence of adjuvant (P. aeruginosa R590 [1]; antibiotic Rifampicin) | Potentiation factor (P. aeruginosa R590 [1]; antibiotic Rifampicin) | FICI (P. aeruginosa R590 [1]; antibiotic Tetracycline) | MIC of antibiotic in presence of adjuvant (P. aeruginosa R590 [1]; antibiotic Tetracycline) | Potentiation factor (P. aeruginosa R590 [1]; antibiotic Tetracycline) | also measured |
| --- | --- | --- | --- | --- | --- | --- | --- | --- | --- | --- | --- | --- | --- | --- | --- | --- | --- | --- | --- | --- | --- |
| NCCCC[C@H](N)C(=O)NCCCCCCN(CCCCCCNC(=O)[C@@H](N)CCCCN)C(=O)Cc1cccc2ccccc12 [Compound 13, N,N-bis-[(6-(^LLys)amido)hexyl] naphthyl ethanamide tetrakistrifluoroacetate] | 0.375 | 32 µg/mL | 4 | No potentiation | No potentiation | 0.094 | 2 µg/mL | 32 | 0.1875 | 32 µg/mL | 8 | 0.1875 | 0.5 µg/mL | 16 | <0.019 | <0.5 µg/mL | >256 | 0.266 | 4 µg/mL | 64 | Time to completely kill the bacteria (A. baumannii R674 [2]): 2 h; MIC (E. coli R3336): > 512 µg/mL; MIC (A. baumannii R674 [3]): 512 µg/mL; MIC (K. pneumoniae R3934): > 512 µg/mL; MIC (P. aeruginosa R590 [4]): 512 µg/mL |
| NCCCC[C@H](N)C(=O)NCCCCCCN(CCCCCCNC(=O)[C@@H](N)CCCCN)C(=O)CC(c1ccccc1)c1ccccc1 [Compound 14, N,N-bis-[(6-(^LLys)amido)hexyl] 3,3-diphenyl propanamide tetrakis trifluoroacetate] | <0.3125 | 32 µg/mL | 4 | 0.25 µg/mL | No potentiation | <0.012 | <0.25 µg/mL | >256 | <0.156 | 32 µg/mL | 8 | <0.156 | 1 µg/mL | 8 | <0.016 | <0.125 µg/mL | >1024 | <0.1875 | 16 µg/mL | 16 | FICI (P. aeruginosa R590 [1]; antibiotic Colistin): <0.266; Potentiation factor (P. aeruginosa R590 [1]; antibiotic Colistin): 4; Time to kill bacteria (P. aeruginosa R590 [5]): 12 h; MIC (E. coli R3336): > 512 µg/mL; MIC (A. baumannii R674 [3]): > 512 µg/mL; MIC (K. pneumoniae R3934): > 512 µg/mL; MIC (P. aeruginosa R590 [4]): > 512 µg/mL |
